Test results published in patent publication US20250151724A1, “Liquid Soil Treatments Containing Choline” (Harrell's, LLC, priority 2023, published 2025).
Like-named read-outs stand apart in the source and are kept apart here.

Test system: 'A4' creeping bentgrass
Conditions: for Root Diameter / Root Length / Root Surface Area / Root Volume / Root Viability: end of trial; for Root Viability: TTC method
Description: Mature ‘A4’ creeping bentgrass plugs (4″ diameter) were harvested from field plots and transplanted into 6-inch pots filled with a USGA (United States Golf Association) specification sand mix (fine sand with 10% calcined clay). The bentgrass was maintained at 15 mm and fertilized at 0.2 lb N/1,000 ft^2 at transplanting and then 0.15 lb N/1,000 ft^2 biweekly thereafter. After about 2 months of non-stressed growth with optimum temperature, water, fertilizer, and light, the pots were placed in a controlled environment growth chamber at 95° F. day (12 h)/77° F. night (12 h), light intensity at 400 μmol m^−2 s^−1, 12 h photoperiod, and 65% RH. Water was replaced 5 times weekly at 55% of measured evapotranspiration (ET). […] Four treatments were tested with 4 replications for each treatment. The choline chloride solution at the […] listed below was applied to the canopy at 2 gallons/1,000 ft^2 and the same amount of water was applied to the control (Treatment #1).
The treatments were as follows: • 1. Fertilized control (0.15 lb. Nitrogen (N) per 1,000 ft^2 every 14 days from 28-8-18 with UMAXX® fertilizer (Harrell's LLC, Lakeland, Florida) • 2. Choline at 0.125 oz./1,000 ft^2 biweekly+0.15 lb. N/1,000 ft^2 biweekly • 3. Choline at 0.25 oz./1,000 ft^2 biweekly+0.15 lb. N/1,000 ft^2 biweekly • 4. Choline at 0.5 oz./1,000 ft^2 biweekly+0.15 lb. N/1,000 ft^2 biweekly The rate and source of fertilization for treatments #2, 3, and 4 were the same as treatment #1 (fertilized control).
The stress period of the trial lasted for 8 weeks, and there was a total of 4 treatment applications. The following measurements/data were taken at day 0, 14, 28, 42, and 56: • a. Visual leaf color was rated on a 1-9 scale, with 1 indicating brown color and 9 indicating dark green color. • b. Photochemical efficiency was measured with chlorophyll fluorometer (OS-50II, Opti-Sciences, Inc., Hudson, NH). Three readings were collected from each pot and the average was used for statistical analysis. • c. Leaf chlorophyll content and carotenoids were extracted in acetone and measured with a spectrophotometer after incubation for 72 h. • d. Leaf proline content was determined based on the method of Bates et al. 1973 and as described by Wu et al. 2017. • e. Leaf antioxidant superoxide dismutase (SOD) activity was determined based on the method as described by Zhang et al. 2015. • f. Root viability, root samples were collected at the end of the trial and TTC method was used to measure root viability as described by Zhang et al., 2017. • g. Root growth characteristics (root length, root surface area, root diameter, root length density) were determined using WinRHIZO technology. • h. Root biomass of the whole pot was measured at day 56. For leaf chlorophyll, carotenoids, proline, and superoxide dismutase (SOD) activity, fresh samples were collected every two weeks and frozen with liquid and stored at −80° C. before lab analysis.

[1] = 0.125 oz/1000 ft^2 biweekly, day 0
[2] = 0.125 oz/1000 ft^2 biweekly, day 14
[3] = 0.125 oz/1000 ft^2 biweekly, day 28
[4] = 0.125 oz/1000 ft^2 biweekly, day 42
[5] = 0.125 oz/1000 ft^2 biweekly, day 56
[6] = 0.25 oz/1000 ft^2 biweekly, day 0
[7] = 0.25 oz/1000 ft^2 biweekly, day 14
[8] = 0.25 oz/1000 ft^2 biweekly, day 28
[9] = 0.25 oz/1000 ft^2 biweekly, day 42
[10] = 0.25 oz/1000 ft^2 biweekly, day 56
[11] = 0.5 oz/1000 ft^2 biweekly, day 0
[12] = 0.5 oz/1000 ft^2 biweekly, day 14
[13] = 0.5 oz/1000 ft^2 biweekly, day 28
[14] = 0.5 oz/1000 ft^2 biweekly, day 42
[15] = 0.5 oz/1000 ft^2 biweekly, day 56

C[N+](C)(C)CCO.[Cl-] [Choline, choline chloride]
Carotenoids [1]: 1.05a mg/g Fresh Weight
Chlorophyll [1]: 3.04a mg/g Fresh Weight
Leaf color (1-9, 9 = dark green) [1]: 8.0a
Photochemical Efficiency (Fv/F^m) [1]: 0.726a
Proline content [1]: 64.1a μg/g FW
SOD activity [1]: 909.7a Unit/g FW
Carotenoids [2]: 0.88b mg/g Fresh Weight
Chlorophyll [2]: 2.40c mg/g Fresh Weight
Leaf color (1-9, 9 = dark green) [2]: 7.1ab
Photochemical Efficiency (Fv/F^m) [2]: 0.659a
Proline content [2]: 170.7a μg/g FW
SOD activity [2]: 906.4a Unit/g FW
Carotenoids [3]: 0.76c mg/g Fresh Weight
Chlorophyll [3]: 2.16b mg/g Fresh Weight
Leaf color (1-9, 9 = dark green) [3]: 6.0b
Photochemical Efficiency (Fv/F^m) [3]: 0.668a
Proline content [3]: 156.5a μg/g FW
SOD activity [3]: 865.7ab Unit/g FW
Carotenoids [4]: 0.69a mg/g Fresh Weight
Chlorophyll [4]: 1.74ab mg/g Fresh Weight
Leaf color (1-9, 9 = dark green) [4]: 6.3b
Photochemical Efficiency (Fv/F^m) [4]: 0.611ab
Proline content [4]: 156.1ab μg/g FW
SOD activity [4]: 752.3bc Unit/g FW
Carotenoids [5]: 0.67b mg/g Fresh Weight
Chlorophyll [5]: 1.72ab mg/g Fresh Weight
Leaf color (1-9, 9 = dark green) [5]: 6.0b
Photochemical Efficiency (Fv/F^m) [5]: 0.596ab
Proline content [5]: 139.7b μg/g FW
Root Biomass [5]: 1.269a g/pot
SOD activity [5]: 721.2bc Unit/g FW
Root Diameter (0.125 oz/1000 ft^2 biweekly): 0.161b mm
Root Length (0.125 oz/1000 ft^2 biweekly): 17.7ab cm/cm^3
Root Surface Area (0.125 oz/1000 ft^2 biweekly): 0.90ab cm^2/cm^3
Root Volume (0.125 oz/1000 ft^2 biweekly): 3.61ab cm^3/dm^3
Root Viability (0.125 oz/1000 ft^2 biweekly): 0.78ab A490/g FW
Carotenoids [6]: 1.03a mg/g Fresh Weight
Chlorophyll [6]: 2.95a mg/g Fresh Weight
Leaf color (1-9, 9 = dark green) [6]: 8.0a
Photochemical Efficiency (Fv/F^m) [6]: 0.726a
Proline content [6]: 63.1a μg/g FW
SOD activity [6]: 870.8a Unit/g FW
Carotenoids [7]: 1.02a mg/g Fresh Weight
Chlorophyll [7]: 2.76a mg/g Fresh Weight
Leaf color (1-9, 9 = dark green) [7]: 7.4a
Photochemical Efficiency (Fv/F^m) [7]: 0.672a
Proline content [7]: 177.4a μg/g FW
SOD activity [7]: 930.7a Unit/g FW
Carotenoids [8]: 0.94a mg/g Fresh Weight
Chlorophyll [8]: 2.75a mg/g Fresh Weight
Leaf color (1-9, 9 = dark green) [8]: 6.6a
Photochemical Efficiency (Fv/F^m) [8]: 0.645a
Proline content [8]: 162.3a μg/g FW
SOD activity [8]: 885.1a Unit/g FW
Carotenoids [9]: 0.84a mg/g Fresh Weight
Chlorophyll [9]: 2.10ab mg/g Fresh Weight
Leaf color (1-9, 9 = dark green) [9]: 6.7a
Photochemical Efficiency (Fv/F^m) [9]: 0.648a
Proline content [9]: 169.5a μg/g FW
SOD activity [9]: 872.3a Unit/g FW
Carotenoids [10]: 0.84a mg/g Fresh Weight
Chlorophyll [10]: 1.99a mg/g Fresh Weight
Leaf color (1-9, 9 = dark green) [10]: 6.6a
Photochemical Efficiency (Fv/F^m) [10]: 0.615a
Proline content [10]: 267.1a μg/g FW
Root Biomass [10]: 1.273a g/pot
SOD activity [10]: 866.5a Unit/g FW
Root Diameter (0.25 oz/1000 ft^2 biweekly): 0.170ab mm
Root Length (0.25 oz/1000 ft^2 biweekly): 18.4a cm/cm^3
Root Surface Area (0.25 oz/1000 ft^2 biweekly): 0.98a cm^2/cm^3
Root Volume (0.25 oz/1000 ft^2 biweekly): 4.18a cm^3/dm^3
Root Viability (0.25 oz/1000 ft^2 biweekly): 1.28a A490/g FW
Carotenoids [11]: 1.07a mg/g Fresh Weight
Chlorophyll [11]: 3.07a mg/g Fresh Weight
Leaf color (1-9, 9 = dark green) [11]: 8.0a
Photochemical Efficiency (Fv/F^m) [11]: 0.718a
Proline content [11]: 53.5a μg/g FW
SOD activity [11]: 878.3a Unit/g FW
Carotenoids [12]: 0.98ab mg/g Fresh Weight
Chlorophyll [12]: 2.67ab mg/g Fresh Weight
Leaf color (1-9, 9 = dark green) [12]: 7.4a
Photochemical Efficiency (Fv/F^m) [12]: 0.690a
Proline content [12]: 180.0a μg/g FW
SOD activity [12]: 911.1a Unit/g FW
Carotenoids [13]: 0.91ab mg/g Fresh Weight
Chlorophyll [13]: 2.54ab mg/g Fresh Weight
Leaf color (1-9, 9 = dark green) [13]: 6.8a
Photochemical Efficiency (Fv/F^m) [13]: 0.661a
Proline content [13]: 167.1a μg/g FW
SOD activity [13]: 900.7a Unit/g FW
Carotenoids [14]: 0.84a mg/g Fresh Weight
Chlorophyll [14]: 2.18a mg/g Fresh Weight
Leaf color (1-9, 9 = dark green) [14]: 6.9a
Photochemical Efficiency (Fv/F^m) [14]: 0.659a
Proline content [14]: 171.8a μg/g FW
SOD activity [14]: 836.4ab Unit/g FW
Carotenoids [15]: 0.83a mg/g Fresh Weight
Chlorophyll [15]: 2.01a mg/g Fresh Weight
Leaf color (1-9, 9 = dark green) [15]: 6.9a
Photochemical Efficiency (Fv/F^m) [15]: 0.610a
Proline content [15]: 278.0a μg/g FW
Root Biomass [15]: 1.270a g/pot
SOD activity [15]: 815.7ab Unit/g FW
Root Diameter (0.5 oz/1000 ft^2 biweekly): 0.176a mm
Root Length (0.5 oz/1000 ft^2 biweekly): 18.8a cm/cm^3
Root Surface Area (0.5 oz/1000 ft^2 biweekly): 0.99a cm^2/cm^3
Root Volume (0.5 oz/1000 ft^2 biweekly): 4.15a cm^3/dm^3
Root Viability (0.5 oz/1000 ft^2 biweekly): 1.10a A490/g FW
